{"source": "patent US20260215432A1", "about": "“ANTIMICROBIAL CONJUGATED OLIGOELECTROLYTES AND METHODS THEREOF” (National University of Singapore, priority 2023, published 2026)", "key": {"MRSA": {"tested_on": "MRSA", "test": "Transmission electron microscopy of treated cells", "assay_type": "cell-based, S. aureus", "conditions": "4 μg mL^−1 for 30 minutes", "procedure": "Damage to the bacterial cell membrane was observed by transmission electron microscopy (TEM). S. aureus cells were incubated with DM6P at 4 μg mL^−1 for 30 minutes and fixed immediately to preserve the membrane ultrastructure as close to the point of cell death as possible. […] In FIG. 7d, cytoplasmic membrane separation, which is a key hallmark of plasmolysis was also observed in a cell, presumably in an earlier stage of death prior to leakage of intracellular components. These observations are consistent with micrographs from cells treated by membrane active AMPs Gramicidin S and PGLa. Taken together, these morphological features are in line with the central idea that TPP-COEs induce damage to the cellular membrane, similar to previously studied COEs. Cellular leakage, protein delocalization and inactivation, and small-molecule permeation are downstream observations frequently associated with cell membrane perturbations.\nA mid-log culture of MRSA was treated either with DM6P at 4 Ig mL^−1 or PBS (control) and incubated for 30 minutes. Cells were then fixed with 4% glutaraldehyde at 4° C. overnight and collected by centrifugation (7000 rpm, 10 minutes). The cell pellets were post-fixed with 0.2% OsO4, serially dehydrated in a graded ethanol series, and embedded in an epoxy resin. […]"}, "SA": {"tested_on": "SA", "test": "MIC in physiological-mimicking environments (MHB)", "assay_type": "cell-based, S. aureus", "excerpt": "The complexities of the physiological environment often influence drug activity, particularly when cations in solution are implicated in their oligomerization-dependent mechanisms of action, such as for daptomycin. Binding of free drug to plasma proteins effectively reduces the available free concentration of the drug capable of killing bacteria, resulting in lower observable activity. We tested MIC values of DM4P and DM6P in the presence of human serum albumin (40 g L^−1) and high salt concentrations (Table 4). Under these conditions, the antimicrobial activity was minimally affected by these environmental factors, with MICs remaining within a 2-fold level."}, "[1]": {"tested_on": "E. coli. K12 (ATCC 10798)", "test": "MIC, broth microdilution in CA-MHB", "assay_type": "cell-based", "procedure": "(§1) Antimicrobial activity was screened against a range of pathogens made up of clinically relevant ESKAPE pathogens by determination of the minimum inhibitory concentration (MIC) in cation-adjusted Mueller-Hinton broth (CA-MHB).\n(§2) Minimum inhibitory concentrations of COEs were determined through a broth microdilution method in accordance with the Clinical and Laboratory Standards Institute (CLSI) guidelines M07-A10. A single bacterial colony was isolated from an overnight culture and grown to mid-log phase (OD600~0.8). Compounds were prepared as a stock solution in DMSO and diluted in a sterile flat-bottom 96-well plate in CA-MHB. Subsequent concentrations were prepared by two-fold dilution of the initial solution. An equivalent volume of bacteria was added to the compound to a final concentration of 5×10^5 cfu/mL. Plates were incubated at 37° C. for 16-18 hours, and read at OD600 using a microplate reader (TECAN Spark®). […] MIC values were determined for each compound in triplicate."}, "[2]": {"tested_on": "P. aeruginosa (ATCC47085)", "test": "MIC, broth microdilution in CA-MHB", "assay_type": "cell-based", "procedure": "as §1, §2"}, "[3]": {"tested_on": "Methicillin-resistant S. aureus (ATCC BAA1717)", "test": "MIC, broth microdilution in CA-MHB", "assay_type": "cell-based", "procedure": "as §1, §2"}, "A. baumanii (ATCC 17978)": {"tested_on": "A. baumanii (ATCC 17978)", "test": "MIC, broth microdilution in CA-MHB", "assay_type": "cell-based", "procedure": "as §1, §2"}, "E. facium (ATCC 19434)": {"tested_on": "E. facium (ATCC 19434)", "test": "MIC, broth microdilution in CA-MHB", "assay_type": "cell-based", "conditions": "CA-MHB", "procedure": "as §1, §2"}, "[4]": {"tested_on": "E. faecalis OG1RF (ATCC 47077)", "test": "MIC, broth microdilution in CA-MHB", "assay_type": "cell-based", "procedure": "as §1, §2"}, "S. aureus (ATCC 29213)": {"tested_on": "S. aureus (ATCC 29213)", "test": "MIC, broth microdilution in CA-MHB", "assay_type": "cell-based", "procedure": "as §1, §2"}, "[5]": {"tested_on": "K. pneumoniae (carbapenem-resistant Enterobacterales) (ATCC BAA1705)", "test": "MIC, broth microdilution in CA-MHB", "assay_type": "cell-based", "procedure": "as §1, §2"}, "PAO1": {"tested_on": "PAO1", "test": "Live-dead staining (SYTO-9/PI) fluorescence microscopy", "assay_type": "cell-based, P. aeruginosa", "conditions": "PAO1, 16 μg mL^−1 for 30 minutes", "procedure": "Membrane damage induced by COE treatment was also confirmed by fluorescence microscopy. A combination of SYTO-9 and PI is commonly employed as a live-dead stain to distinguish cells with permeabilized membranes. […] Combined with PI, the contrast between the colours is employed as a visual indicator of membrane damage. PAO1 cells exposed to 16 μg mL^−1 of DM6P for 30 minutes were subsequently stained with both dyes and imaged directly.\nCell membrane integrity was determined using LIVE/DEAD™ BacLight™ bacterial viability kit L7007 (ThermoFisher, USA) according to the manufacturer's protocol. Bacteria cells were collected from mid-log cultures by centrifugation (7000 rpm, 10 minutes). The media was removed, and the bacteria was washed with PBS twice and diluted to a concentration of about 1×10^7 CFU per mL. […] A mixture of the dyes SYTO-9 and PI dissolved in DMSO were added to the suspension at final concentrations of 5 μM and 30 μM respectively. The bacteria were then incubated in the dark for 15 min. Samples were prepared by aliquoting 5 μl onto a clean glass slide, trapped with an 18 mm coverslip and imaged on an epifluorescence microscope (Leica Thunder Imager)."}, "[6]": {"tested_on": "methicillin-resistant Staphylococcus aureus (ATCC BAA-1717)", "test": "Time-kill kinetics", "assay_type": "cell-based", "conditions": "MRSA, within the first two hours, concentrations above the MBC value of 4 μg mL^−1", "procedure": "Separately, MRSA and P. aeruginosa cultures were challenged with DM6P at varying concentrations and aliquots were taken at specific intervals to quantify the bacteria remaining.\nThe time-kill kinetics was determined against Pseudomonas aeruginosa (PAO1, ATCC 47085) and methicillin-resistant Staphylococcus aureus (ATCC BAA-1717). Bacteria tested were subcultured in Cation-Adjusted Mueller Hinton II Broth (CAMHB, BD Biosciences) from overnight cultures to mid-log phase at 37° C. with shaking at 200 rpm and diluted to an OD600 value of 0.2 and aliquoted into 2 mL fractions in culture tubes. The resulting bacterial suspension was then challenged with DM6P at varying concentrations and incubated at 37° C. with shaking at 200 rpm. At regular intervals, 100 μL aliquots of each sample were diluted with 10-fold dilution in PBS and plated on TSB agar plates with 100 μL inoculation. The colonies were incubated at 37° C. overnight and counted to determine the cfu/mL of each sample. Experiments were performed in triplicate."}}}
{"smiles": "COc1cc(/C=C/c2ccc(OCCCCCC[P+](c3ccccc3)(c3ccccc3)c3ccccc3)c(OC)c2)ccc1OCCCCCC[P+](c1ccccc1)(c1ccccc1)c1ccccc1.[I-].[I-]", "note": "[DM6P]", "values": [{"measurement": "membrane damage by TEM", "setting": "MRSA", "result": "visible cellular shrinkage and membrane disintegration"}, {"measurement": "MIC CaCl2", "setting": "SA; CaCl2 1 mM", "result": 1, "unit": "µg/mL"}, {"measurement": "MIC MgCl2", "setting": "SA; MgCl2 1.25mM", "result": 1, "unit": "µg/mL"}, {"measurement": "MIC NaCl", "setting": "SA; NaCl 300 mM", "result": 1, "unit": "µg/mL"}, {"measurement": "MIC HSA", "setting": "SA; human serum albumin 40 g L^−1", "result": 1, "unit": "µg/mL"}, {"measurement": "MIC —", "setting": "SA; no additive", "result": 1, "unit": "µg/mL"}, {"measurement": "MIC EC", "setting": "[1]; CA-MHB", "result": 2, "unit": "µg/mL"}, {"measurement": "MIC", "setting": "[1]; strain EC, Table 5", "result": 2, "unit": "µg/mL"}, {"measurement": "MIC PA", "setting": "[2]; CA-MHB", "result": 4, "unit": "µg/mL"}, {"measurement": "MIC", "setting": "[2]; strain PA, Table 5", "result": 4, "unit": "µg/mL"}, {"measurement": "MIC MRSA", "setting": "[3]; CA-MHB", "result": 1, "unit": "µg/mL"}, {"measurement": "MIC", "setting": "[3]; strain MRSA, Table 5", "result": 1, "unit": "µg/mL"}, {"measurement": "MIC", "setting": "[3]; towards MRSA, Table 3", "result": 1, "unit": "µg/mL"}, {"measurement": "MIC AB", "setting": "A. baumanii (ATCC 17978); CA-MHB", "result": 8, "unit": "µg/mL"}, {"measurement": "MIC", "setting": "A. baumanii (ATCC 17978); strain AB, Table 5", "result": 8, "unit": "µg/mL"}, {"measurement": "MIC FAC", "setting": "E. facium (ATCC 19434)", "result": 1, "unit": "µg/mL"}, {"measurement": "MIC FAE", "setting": "[4]; CA-MHB", "result": 1, "unit": "µg/mL"}, {"measurement": "MIC", "setting": "[4]; strain EF, Table 5", "result": 1, "unit": "µg/mL"}, {"measurement": "MIC SA", "setting": "S. aureus (ATCC 29213)", "result": 1, "unit": "µg/mL"}, {"measurement": "MIC KP", "setting": "[5]; CA-MHB", "result": 8, "unit": "µg/mL"}, {"measurement": "MIC", "setting": "[5]; strain CRKP, Table 5", "result": 8, "unit": "µg/mL"}, {"measurement": "PI staining in live-dead stain", "setting": "PAO1", "result": "clear staining by PI"}, {"measurement": "bacteria remaining (nearly complete killing)", "setting": "[6]", "result": "< 100", "unit": "cfu mL^−1"}]}
